The source of these data is patent publication US20260070887A1 (Shenzhen Zhongge Biological Technology Co., Ltd., priority 2022, published 2026).

The target in one experiment is KIF18A (Homo sapiens (Human), UniProt Q8NI77). In words: KIF18A ATPase activity under tubulin stimulation (ADP-Glo assay). Particulars: KIF18A 30 nM, ATP 150 μM, pig microtubules. Type of experiment: biochemical. In general terms: ADP-Glo first removes unused ATP, then detects ADP through luciferase.
The next experiment has as its system HT-29 cells. Kind of experiment: HT-29 cell proliferation (Cell Titer-Glo, 6 days). It counts as cell-based. On the procedure:
The inhibitory effect on the KIF18A target by the compounds of the present disclosure was evaluated by testing the inhibitory effect on proliferation of HT-29 cells by the compounds of the present disclosure.
HT-29 (ATCC, HTB-38) cells were cultured in McCoy's 5a complete medium (Gibco, 12330-031) containing 10% fetal bovine serum (Gibco, 10099-141C), 100 U penicillin and […] streptomycin (Gibco, 15140-122). The Promega kit Cell Titer-Glo (Promega: G7572) was used in this method for test. • 1. HT-29 cells were cultured in T75 cell flasks (Corning, 430641) and the medium was placed in a 37° C., 5% CO2 incubator. Cells were passaged when reaching a cell density of 70%-80%, approximately twice per week. • 2. To perform the experiment, the test compounds were dissolved in DMSO to prepare a 10 mM stock solution, and the test compounds were added to the 384-well cell test plate (Corning, 3765) at the predetermined concentration using ECHO. • 3. The cell culture flask was taken out, the medium was removed, and the cells were rinsed with PBS. Then 2 mL of trypsin (with 0.25% EDTA) was added, and the flask was placed in the incubator for digestion for 4 minutes. • 4. Digestion was stopped by adding 4 mL of complete medium and the cell suspension was transferred to a centrifuge tube and centrifuged at 1000 rpm for 4 minutes. • 5. The cells were resuspended in 6 mL of complete medium, followed by cell counting. The cell density was adjusted to 4,170 cells/mL, and the cells were added to a 384-well plate at 60 μL/well. • 6. The 384-well plate was centrifuged at 500 rpm for 1 minute, and then placed in a 37° C., 5% CO2 incubator for 6 days of cultivation. • 7. Six days later, the cell culture plate was equilibrated for 10 minutes at room temperature, 25 μL of Cell Titer-Glo was added to each well, and the mixture was shaken and mixed well and let stand for 5 minutes. The luminescence values for samples in various wells were read using a microplate reader in Luminescence mode.
The percentage of inhibition of cell proliferation by the test compound at each concentration was calculated by comparing with the values of the control group (0.3% DMSO). The IC50 values of the compounds were obtained by concentration-inhibition rate nonlinear regression analysis of the test compounds using GraphPad Prism 9.

For the next experiment, the system named is A2780 cells. Kind of experiment: A2780 cell anti-proliferation assay. Particulars: 6 days, Cell Titer-Glo. It counts as cell-based. On the procedure: A2780 (ECACC) cells were cultured in RPMI-1640 complete medium (Gibco, A1049101) containing 10% fetal bovine serum (Gibco, 10099-141C), 100 U penicillin and 100 μg/mL streptomycin (Gibco, 15140-122). The Promega kit Cell Titer-Glo (Promega: G7572) was used in this method for test.
A2780 cells were cultured in T75 cell flasks (Corning, 430641) and the cells were placed in a 37° C., 5% CO2 incubator. Cells were passaged when reaching a cell density of 70%-80%, once every five days. To perform the experiment, the test compounds were dissolved in DMSO to prepare a 10 mM stock solution, and the test compounds were added to the 384-well cell test plate (Corning, 3765) at the predetermined concentration (19.5 nM-[…]) using ECHO. A2780 cells were digested and 4000 cells (60 μL medium) were seeded per well in the test plate. The 384-well plate was then centrifuged at 500 rpm for 1 minute, and then placed in a 37° C., 5% CO2 incubator for 6 days of cultivation. Six days later, the cell culture plate was equilibrated for 10 minutes at room temperature, 25 μL of Cell Titer-Glo was added to each well, and the mixture was shaken and mixed well and let stand for 5 minutes. The luminescence values for samples in various wells were read using a microplate reader in Luminescence mode.
The percentage of inhibition of A2780 cell proliferation by the test compound at each concentration was calculated by comparing with the values of the control group (0.2% DMSO). The IC50 values of the compounds were obtained by concentration-inhibition rate nonlinear regression analysis of the test compounds using GraphPad Prism 9.

Read-outs that look alike come from different tables or passages of the source.

As usually defined, the IC50 is the concentration that gives 50% inhibition. Low readings indicate higher potency, high ones lower potency.

Sequence of KIF18A (Q8NI77 whole entry): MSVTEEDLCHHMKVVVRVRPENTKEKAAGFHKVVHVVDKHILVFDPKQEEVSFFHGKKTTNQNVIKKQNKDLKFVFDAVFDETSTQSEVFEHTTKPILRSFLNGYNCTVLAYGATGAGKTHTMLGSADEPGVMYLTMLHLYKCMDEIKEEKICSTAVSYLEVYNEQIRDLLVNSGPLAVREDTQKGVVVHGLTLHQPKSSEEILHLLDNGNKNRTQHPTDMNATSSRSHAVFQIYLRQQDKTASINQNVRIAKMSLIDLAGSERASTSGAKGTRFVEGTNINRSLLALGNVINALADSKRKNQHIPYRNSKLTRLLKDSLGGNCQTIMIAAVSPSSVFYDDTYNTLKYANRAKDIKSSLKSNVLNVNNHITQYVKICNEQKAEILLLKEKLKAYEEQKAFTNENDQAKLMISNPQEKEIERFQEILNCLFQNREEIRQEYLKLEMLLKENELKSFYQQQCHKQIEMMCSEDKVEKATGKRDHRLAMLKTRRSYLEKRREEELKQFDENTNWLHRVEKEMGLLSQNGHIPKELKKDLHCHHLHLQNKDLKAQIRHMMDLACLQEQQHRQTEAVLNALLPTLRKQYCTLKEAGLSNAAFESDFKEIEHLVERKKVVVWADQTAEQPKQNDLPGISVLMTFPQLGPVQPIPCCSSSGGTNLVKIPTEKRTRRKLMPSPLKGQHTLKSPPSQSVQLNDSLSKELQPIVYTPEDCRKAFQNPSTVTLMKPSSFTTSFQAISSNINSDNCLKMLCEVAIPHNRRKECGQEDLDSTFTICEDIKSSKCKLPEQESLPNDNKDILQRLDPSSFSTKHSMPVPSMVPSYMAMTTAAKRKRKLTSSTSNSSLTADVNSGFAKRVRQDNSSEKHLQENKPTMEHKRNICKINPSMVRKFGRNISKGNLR
Sequence of KIF18A (P02550 whole entry partner): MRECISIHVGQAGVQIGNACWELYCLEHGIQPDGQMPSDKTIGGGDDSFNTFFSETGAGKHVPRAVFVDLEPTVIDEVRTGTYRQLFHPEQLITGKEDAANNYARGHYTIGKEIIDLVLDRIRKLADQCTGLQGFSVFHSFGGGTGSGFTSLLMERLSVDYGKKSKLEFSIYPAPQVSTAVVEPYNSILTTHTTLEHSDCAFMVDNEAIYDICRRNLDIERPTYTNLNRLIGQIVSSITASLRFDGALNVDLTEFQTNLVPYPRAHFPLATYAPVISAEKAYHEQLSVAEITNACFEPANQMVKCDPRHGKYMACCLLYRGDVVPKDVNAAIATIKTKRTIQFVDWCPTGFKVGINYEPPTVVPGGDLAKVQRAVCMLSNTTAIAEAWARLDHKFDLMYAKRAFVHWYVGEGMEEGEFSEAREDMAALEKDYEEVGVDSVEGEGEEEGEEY
Sequence of KIF18A (P02554 whole entry partner): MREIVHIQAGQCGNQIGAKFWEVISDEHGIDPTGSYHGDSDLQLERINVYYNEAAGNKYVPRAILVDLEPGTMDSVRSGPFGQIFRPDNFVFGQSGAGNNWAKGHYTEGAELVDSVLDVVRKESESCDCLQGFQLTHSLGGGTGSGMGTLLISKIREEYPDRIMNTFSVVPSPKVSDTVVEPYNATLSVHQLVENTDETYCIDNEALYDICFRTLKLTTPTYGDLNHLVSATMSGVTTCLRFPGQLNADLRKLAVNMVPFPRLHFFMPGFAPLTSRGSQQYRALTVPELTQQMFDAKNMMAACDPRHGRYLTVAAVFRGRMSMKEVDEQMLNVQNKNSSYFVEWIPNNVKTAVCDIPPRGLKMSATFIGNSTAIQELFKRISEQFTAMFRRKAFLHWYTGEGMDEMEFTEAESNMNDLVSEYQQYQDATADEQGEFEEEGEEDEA

With `CC1Cn2c(cc3c(NC(=O)c4ccc(NS(=O)(=O)CCO)cc4N4CCC5(CC4)CC5)cccc32)C(C)O1` (single isomer, unassigned) [Compound 312-P2A, N-(1,3-dimethyl-3,4-dihydro-1H-[1,4]oxazino[4,3-a]indol-9-yl)-4-((2-hydroxyethyl)sulfonamido)-2-(6-azaspiro[2.5]oct-6-yl)benzamide], the IC50 was at most 50 nM on KIF18A; at most 200 nM with HT-29 cells (Homo sapiens, HT-29, 144 h); 6500 nM with A2780 cells.

For `CC1Cn2c(cc3c(NC(=O)c4ccc(NS(=O)(=O)CCO)cc4N4CCC5(CC4)CC5)cccc32)C(C)O1` (single isomer, unassigned) [Compound 312-P3, N-(1,3-dimethyl-3,4-dihydro-1H-[1,4]oxazino[4,3-a]indol-9-yl)-4-((2-hydroxyethyl)sulfonamido)-2-(6-azaspiro[2.5]oct-6-yl)benzamide], the IC50 against KIF18A is 50 to 500 nM; with HT-29 cells it was at most 200 nM; in the experiment with A2780 cells (Homo sapiens, A2780, 144 h) it was over 10000 nM.

As to `COC1c2cc3c(NC(=O)c4ccc(NS(=O)(=O)CCO)cc4N4CCC5(CC4)CC5)cccc3n2CCC1(F)F` (single isomer, unassigned) [Example 340-P2], the IC50 was at most 50 nM at KIF18A, at most 200 nM in the experiment on HT-29 cells and over 10000 nM in the experiment with A2780 cells.

As to `CC1(C)Cn2c(nc3c(NC(=O)c4ccc(NS(=O)(=O)CCO)cc4N4CCC5(CC4)CC5)cccc32)CO1` [Compound 391, N-(3,3-dimethyl-3,4-dihydro-1H-benzo[4,5]imidazo[2,1-c][1,4]oxazin-9-yl)-4-((2-hydroxyethyl)sulfonamido)-2-(6-azaspiro[2.5]octan-6-yl)benzamide], the IC50 against KIF18A was 50 to 500 nM; in the experiment with HT-29 cells (Homo sapiens, HT-29, 144 h), at most 200 nM; in the experiment on A2780 cells (Homo sapiens, A2780, 144 h) it was over 10000 nM.

Take `CC1(C)Cn2c(cc3c(NC(=O)c4ccc(NS(=O)(=O)CCO)cc4N4CCC5(CC4)CC5)ccc(C#N)c32)CO1` [Compound 392, N-(6-cyano-3,3-dimethyl-3,4-dihydro-1H-[1,4]oxazino[4,3-a]indol-9-yl)-4-((2-hydroxyethyl)sulfonamido)-2-(6-azaspiro[2.5]oct-6-yl)benzamide]: the IC50 against KIF18A was at most 50 nM; in the experiment on HT-29 cells (Homo sapiens, HT-29, 144 h) it was at most 200 nM; with A2780 cells (Homo sapiens, A2780, 144 h), 6100 nM.

In the case of `CC1(C)Cn2c(cc3c(NC(=O)c4ccc(NS(=O)(=O)CCO)cc4N4CCC(=C(F)F)CC4)ccc(C#N)c32)CO1` [Compound 393, N-(6-cyano-3,3-dimethyl-3,4-dihydro-1H-[1,4]oxazino[4,3-a]indol-9-yl)-2-(4-(difluoromethylene)piperidin-1-yl)-4-((2-hydroxyethyl)sulfonamido)benzamide], the IC50 was 50 to 500 nM against KIF18A; at most 200 nM in the experiment on HT-29 cells (Homo sapiens, HT-29, 144 h); over 10000 nM in the experiment on A2780 cells (Homo sapiens, A2780, 144 h).

With `CC1(C)Cn2c(nc3c(NC(=O)c4ccc(NS(=O)(=O)CCO)cc4N4CCC(=C(F)F)CC4)cccc32)CO1` [Compound 394, 2-(4-(difluoromethylene)piperidin-1-yl)-N-(3,3-dimethyl-3,4-dihydro-1H-benzo[4,5]imidazo[2,1-c][1,4]oxazin-9-yl)-4-((2-hydroxyethyl)sulfonamido)benzamide], the IC50 at KIF18A was at most 50 nM; in the experiment on HT-29 cells (Homo sapiens, HT-29, 144 h), at most 200 nM; in the experiment on A2780 cells (Homo sapiens, A2780, 144 h), over 10000 nM.

On to `CC1(C)OCCn2c1cc1c(NC(=O)c3ccc(NS(=O)(=O)CCO)cc3N3CCC(=C(F)F)CC3)cccc12` [Compound 395, 2-(4-(difluoromethylene)piperidin-1-yl)-N-(1,1-dimethyl-3,4-dihydro-1H-[1,4]oxazino[4,3-a]indol-9-yl)-4-((2-hydroxyethyl)sulfonamido)benzamide], for which the IC50 against KIF18A is at most 50 nM; with HT-29 cells (Homo sapiens, HT-29, 144 h) it was 200 to 1000 nM; in the experiment on A2780 cells (Homo sapiens, A2780, 144 h), over 10000 nM.

With `O=C(Nc1cccc2c1cc1n2CC2CCC1O2)c1ccc(NS(=O)(=O)CCO)cc1N1CCC(=C(F)F)CC1` (centres unmarked) [Compound 398, 2-(4-(difluoromethylene)piperidin-1-yl)-4-((2-hydroxyethyl)sulfonamido)-N-(7,8,9,10-tetrahydro-6H-7,10-epoxyazeto[1,2-a]indol-1-yl)benzamide], the IC50 on KIF18A was 50 to 500 nM; in the experiment with A2780 cells, over 10000 nM.

For the compound `COc1ccc(NC(=O)c2ccc(NS(=O)(=O)CCO)cc2N2CCC(=C(F)F)CC2)c2cc3n(c12)CCOC3` [Compound 405, 2-(4-(difluoromethylene)piperidin-1-yl)-4-((2-hydroxyethyl)sulfonamido)-N-(6-methoxy-3,4-dihydro-1H-[1,4]oxazinyl[4,3-a]indol-9-yl)benzamide], the IC50 on KIF18A is at most 50 nM; in the experiment on HT-29 cells, at most 200 nM; in the experiment on A2780 cells it was over 10000 nM.

`Nc1cc(NS(=O)(=O)CCO)cc(N2CCC3(CC2)CC3)c1C(=O)Nc1cccc(N2CCC(F)(F)CC2)c1` [Example 1, 2-amino-N-(3-(4,4-difluoropiperidin-1-yl)phenyl)-4-((2-hydroxyethyl)sulfonamide)-6-(6-azaspiro[2.5]octan-6-yl)benzamide]: the IC50 against KIF18A is at most 50 nM; in the experiment with HT-29 cells, at most 200 nM.

On to `CNc1cc(NS(=O)(=O)CCO)cc(N2CCC3(CC2)CC3)c1C(=O)Nc1cc(C)nc(N2CCC(F)(F)CC2)n1` [Example 4, N-(2-(4,4-difluoropiperidin-1-yl)-6-methylpyrimidin-4-yl)-4-(2-hydroxyethylsulfonamide)-2-methylamino-6-(6-azaspiro[2.5]octan-6-yl)benzamide], for which the IC50 was 50 to 500 nM on KIF18A, at most 200 nM in the experiment on HT-29 cells and 8300 nM with A2780 cells.

As for `O=C(Nc1cccc2c1cc1n2CCOC1)c1ccc(NS(=O)(=O)CCO)cc1N1CCC2(CC1)CC2` [Example 235, N-(3,4-dihydro-1H-[1, 4]oxazino[4,3-a]indol-9-yl)-4-(2-hydroxyethylsulfonamido)-2-(6-azaspiro[2.5]octan-6-yl)benzamide], the IC50 on KIF18A was at most 50 nM; with HT-29 cells (Homo sapiens, HT-29, 144 h), at most 200 nM; in the experiment on A2780 cells (Homo sapiens, A2780, 144 h), over 10000 nM.

`O=C(Nc1ccc(F)c2c1nc1n2CCOC1)c1ccc(NS(=O)(=O)CCO)cc1N1CCC2(CC1)CC2` [Example 308, N-(6-fluoro-3,4-dihydro-1H-benzo[4,5]imidazo[2,1-c][1,4]oxazin-9-yl)-4-((2-hydroxyethyl)sulfonamido)-2-(6-azaspiro[2.5]octan-6-yl)benzamide]: the IC50 is at most 50 nM against KIF18A; at most 200 nM with HT-29 cells (Homo sapiens, HT-29, 144 h); over 10000 nM in the experiment on A2780 cells (Homo sapiens, A2780, 144 h).

For `N#Cc1ccc(NC(=O)c2ccc(NS(=O)(=O)CCO)cc2N2CCC3(CC2)CC3)c2cc3n(c12)CCOC3` [Example 310, N-(6-cyano-3,4-dihydro-1H-[1,4]oxazino[4,3-a]indol-9-yl)-4-((2-hydroxyethyl)sulfonamido)-2-(6-azaspiro[2.5]oct-6-yl)benzamide], the IC50 is at most 50 nM against KIF18A; at most 200 nM with HT-29 cells (Homo sapiens, HT-29, 144 h); over 10000 nM in the experiment with A2780 cells (Homo sapiens, A2780, 144 h).

Regarding `O=C(Nc1cccc2c1cc1n2CCOC1)c1ccc(NS(=O)(=O)CCO)cc1N1CCC(=C(F)F)CC1` [Example 319, 2-(4-difluoromethylene)piperidin-1-yl-N-(3,4-dihydro-1H-[1,4]oxazino[4,3-a]indol-9-yl)-4-((2-hydroxyethyl)sulfonamide) benzamide], the figures for the IC50 against KIF18A, in the experiment on HT-29 cells and with A2780 cells were at most 50 nM, 200 to 1000 nM and over 10000 nM, respectively.

With `CC1(C)Cn2c(cc3c(NC(=O)c4ccc(NS(=O)(=O)CCO)cc4N4CCC5(CC4)CC5)ccc(OC(F)F)c32)CO1` [Example 523], the IC50 on KIF18A lay in the range of 50 to 500 nM.
